Reference: ChEMBL document CHEMBL3124779, “Discovery of ABT-267, a pan-genotypic inhibitor of HCV NS5A” (J Med Chem, 2014)
In brackets after ≈: the same amount, converted by molar mass.

Experiments:
[1] = Oral bioavailability in rat at 3 mg/kg; format: ADME, organism-based; conditions: in vivo
[2] = Cmax in rat at 3 mg/kg, po; format: ADME, organism-based; set-up: dose 3 mg/kg, route oral; conditions: in vivo
[3] = AUC in rat at 3 mg/kg, po; format: ADME, organism-based; set-up: dose 3 mg/kg, route oral; conditions: plasma
[4] = Tmax in rat at 3 mg/kg, po; format: ADME, organism-based; set-up: dose 3 mg/kg, route oral; conditions: in vivo
[5] = Clearance in rat at 3 mg/kg, iv; format: ADME, organism-based; set-up: dose 3 mg/kg, route intravenous; conditions: in vivo
[6] = Metabolic stability in human liver microsomes assessed as compound remaining after 30 mins; format: ADME; conditions: read-out: Stability
[7] = Kinetic solubility of the compound in 10 mM of phosphate buffer at pH 7.2 by CLND method; format: physicochemical; conditions: read-out: Kinetic_solubility
[8] = Metabolic stability in rat liver microsomes assessed as compound remaining after 30 mins; format: ADME; conditions: read-out: Stability
[9] = Lipophilicity, log D of the compound at pH 7.4 by HPLC analysis; format: physicochemical; conditions: buffer
Hepatitis C virus [10] = assay: Ratio of EC50 for HCV1b Con1 infected in human HuH7 cells in presence of 40% human plasma to EC50 for HCV1b Con1 infected in human HuH7 cells in absence of 40% human plasma; format: functional, Hepacivirus hominis, isolate Con1, Huh-7
Hepatitis C virus [11] = assay: Ratio of EC50 for HCV1a H77 infected in human HuH7 cells in presence of 40% human plasma to EC50 for HCV1a H77 infected in human HuH7 cells in absence of 40% human plasma; format: functional, Hepacivirus hominis, genotype 1a H77, Huh-7
Hepatitis C virus [12] = assay: Antiviral activity against HCV1b Con1 infected in human HuH7 cells assessed as inhibition of viral replication after 4 days by luciferase reporter gene assay in presence of 40% human plasma; format: functional, organism-based, Hepacivirus hominis; conditions: isolate Con1, Huh-7, Plasma, 96 h
Hepatitis C virus [13] = assay: Antiviral activity against HCV1a H77 infected in human HuH7 cells assessed as inhibition of viral replication after 4 days by luciferase reporter gene assay in presence of 40% human plasma; format: functional, organism-based, Hepacivirus hominis; conditions: genotype 1a H77, Huh-7, Plasma, 96 h
Hepatitis C virus [14] = assay: Antiviral activity against HCV1a H77 infected in human HuH7 cells assessed as inhibition of viral replication after 4 days by luciferase reporter gene assay; format: functional, organism-based, Hepacivirus hominis; conditions: genotype 1a H77, Huh-7, 96 h
Hepatitis C virus [15] = assay: Antiviral activity against HCV1b Con1 infected in human HuH7 cells assessed as inhibition of viral replication after 4 days by luciferase reporter gene assay; format: functional, organism-based, Hepacivirus hominis; conditions: isolate Con1, Huh-7, 96 h
[16] = Half life in rat at 3 mg/kg, po; format: ADME, organism-based; set-up: dose 3 mg/kg, route oral; conditions: in vivo
[17] = Volume of distribution at steady state in rat at 3 mg/kg, iv; format: ADME, organism-based; set-up: dose 3 mg/kg, route intravenous; conditions: in vivo, read-out: Vdss
[18] = Half life in rat at 3 mg/kg, iv; format: ADME, organism-based; set-up: dose 3 mg/kg, route intravenous; conditions: in vivo
[19] = AUC in dog at 2.5 mg/kg, po; format: ADME, organism-based, Canis lupus familiaris; set-up: dose 2.5 mg/kg, route oral; conditions: plasma
[20] = Oral bioavailability in dog at 2.5 mg/kg; format: ADME, organism-based, Canis lupus familiaris; conditions: in vivo
[21] = Cmax in dog at 2.5 mg/kg, po; format: ADME, organism-based, Canis lupus familiaris; set-up: dose 2.5 mg/kg, route oral; conditions: in vivo
[22] = Half life in dog at 2.5 mg/kg, po; format: ADME, organism-based, Canis lupus familiaris; set-up: dose 2.5 mg/kg, route oral; conditions: in vivo
[23] = Tmax in dog at 2.5 mg/kg, po; format: ADME, organism-based, Canis lupus familiaris; set-up: dose 2.5 mg/kg, route oral; conditions: in vivo
[24] = Clearance in dog at 1 mg/kg, iv; format: ADME, organism-based, Canis lupus familiaris; set-up: dose 1 mg/kg, route intravenous; conditions: in vivo
[25] = Half life in dog at 1 mg/kg, iv; format: ADME, organism-based, Canis lupus familiaris; set-up: dose 1 mg/kg, route intravenous; conditions: in vivo
[26] = Volume of distribution at steady state in dog at 1 mg/kg, iv; format: ADME, organism-based, Canis lupus familiaris; set-up: dose 1 mg/kg, route intravenous; conditions: in vivo, read-out: Vdss

bioavailability [1]	Cmax [2]	AUC [3]	Tmax [4]	clearance [5]	remaining at 0.5 h [6]	solubility kinetic [7]	remaining at 0.5 h [8]	logD [9]	EC50 (Hepatitis C virus [12])	EC50 (Hepatitis C virus [13])	EC50 (Hepatitis C virus [14])	EC50 (Hepatitis C virus [15])	half-life [16]	Vd [17]	half-life [18]	SMILES	Ratio EC50 (Hepatitis C virus [10])	Ratio EC50 (Hepatitis C virus [11])	other results
23%	110 ng/mL	1850 ng·h/mL	3 h	< 6.5 mL/min/kg	52%	4.4 µM (≈ 3.89 µg/mL)	56%	5.2	528 pM	15500 pM	263 pM	6 pM				COC(=O)N[C@H](C(=O)N1CCC[C@H]1C(=O)Nc1ccc([C@@H]2CC[C@@H](c3ccc(NC(=O)[C@@H]4CCCN4C(=O)[C@@H](NC(=O)OC)C(C)(C)C)cc3)N2c2ccc(F)cc2)cc1)C(C)(C)C	88	59	
14%	70 ng/mL	120 ng·h/mL	0.7 h	56.7 mL/min/kg	54%	9.6 µM (≈ 8.52 µg/mL)	47%	3	539 pM	1400 pM	168 pM	86 pM	1.1 h	1.3 L/kg	0.6 h	COC(=O)N[C@H](C(=O)N1CCC[C@H]1C(=O)Nc1ccc([C@@H]2CC[C@@H](c3ccc(NC(=O)[C@@H]4CCCN4C(=O)[C@@H](NC(=O)OC)[C@@H](C)OC)cc3)N2c2ccc(F)cc2)cc1)[C@@H](C)OC	6	8	
15%	120 ng/mL	170 ng·h/mL	0.5 h	45 mL/min/kg	48%	7.7 µM (≈ 6.84 µg/mL)	46%	3	1330 pM	1950 pM	794 pM	134 pM	0.9 h	0.9 L/kg	0.4 h	COC(=O)N[C@H](C(=O)N1CCC[C@H]1C(=O)Nc1ccc([C@H]2CC[C@H](c3ccc(NC(=O)[C@@H]4CCCN4C(=O)[C@@H](NC(=O)OC)[C@@H](C)OC)cc3)N2c2ccc(F)cc2)cc1)[C@@H](C)OC	10	2	
1.5%	20 ng/mL	20 ng·h/mL	0.4 h	31.7 mL/min/kg	41%	9.7 µM (≈ 8.85 µg/mL)	42%	3.2	1270 pM	1390 pM	102 pM	54 pM	0.6 h	0.5 L/kg	0.9 h	COC(=O)N[C@H](C(=O)N1CCC[C@H]1C(=O)Nc1ccc([C@@H]2CC[C@@H](c3ccc(NC(=O)[C@@H]4CCCN4C(=O)[C@@H](NC(=O)OC)[C@H]4CCOC4)cc3)N2c2ccc(F)cc2)cc1)[C@H]1CCOC1	24	14	
3.2%	30 ng/mL	20 ng·h/mL	0.3 h	66.7 mL/min/kg	47%	8.5 µM (≈ 7.75 µg/mL)	46%	3.2	917 pM	1920 pM	281 pM	106 pM	0.5 h	1.5 L/kg	0.8 h	COC(=O)N[C@H](C(=O)N1CCC[C@H]1C(=O)Nc1ccc([C@H]2CC[C@H](c3ccc(NC(=O)[C@@H]4CCCN4C(=O)[C@@H](NC(=O)OC)[C@H]4CCOC4)cc3)N2c2ccc(F)cc2)cc1)[C@H]1CCOC1	9	7	
16%	30 ng/mL	500 ng·h/mL	2.2 h	20 mL/min/kg	52%	3.4 µM (≈ 3.08 µg/mL)	56%	4.8	72 pM	650 pM	57 pM	7.1 pM	12.1 h	8.9 L/kg	6 h	COC(=O)N[C@H](C(=O)N1CCC[C@H]1C(=O)Nc1ccc([C@@H]2CC[C@@H](c3ccc(NC(=O)[C@@H]4CCCN4C(=O)[C@@H](NC(=O)OC)C(C)C)cc3)N2c2ccc(C(F)(F)F)cc2)cc1)C(C)C	10	11	AUC [19]: 850 ng·h/mL; bioavailability [20]: 5.5%; Cmax [21]: 70 ng/mL; half-life [22]: 5.8 h; Tmax [23]: 4.7 h; clearance [24]: 2.67 mL/min/kg; half-life [25]: 6 h; Vd [26]: 1.3 L/kg
13%	200 ng/mL	1360 ng·h/mL	1.5 h	4.83 mL/min/kg	58%	3.2 µM (≈ 2.9 µg/mL)	58%	4.9	77 pM	2550 pM	299 pM	6.2 pM	4.9 h	1.3 L/kg	4.2 h	COC(=O)N[C@H](C(=O)N1CCC[C@H]1C(=O)Nc1ccc([C@H]2CC[C@H](c3ccc(NC(=O)[C@@H]4CCCN4C(=O)[C@@H](NC(=O)OC)C(C)C)cc3)N2c2ccc(C(F)(F)F)cc2)cc1)C(C)C	12	9	AUC [19]: 370 ng·h/mL; bioavailability [20]: 4.2%; Cmax [21]: 50 ng/mL; half-life [22]: 5.5 h; Tmax [23]: 1.7 h; clearance [24]: 4.83 mL/min/kg; half-life [25]: 4.4 h; Vd [26]: 1.5 L/kg
7.2%	90 ng/mL	1250 ng·h/mL	5.3 h	2.83 mL/min/kg	78%	1.2 µM (≈ 1.11 µg/mL)	87%		117 pM	1060 pM	21 pM	2.2 pM	11 h	2.3 L/kg	8.2 h	COC(=O)N[C@H](C(=O)N1CCC[C@H]1C(=O)Nc1ccc([C@@H]2CC[C@@H](c3ccc(NC(=O)[C@@H]4CCCN4C(=O)[C@@H](NC(=O)OC)C(C)(C)C)cc3)N2c2ccc(C(C)(C)C)cc2)cc1)C(C)(C)C			
7.2%	90 ng/mL	1390 ng·h/mL	2.5 h	2.83 mL/min/kg	80%	2.2 µM (≈ 2.03 µg/mL)	83%		344 pM	4310 pM	123 pM	8.4 pM	12.4 h	1.7 L/kg	10.2 h	COC(=O)N[C@H](C(=O)N1CCC[C@H]1C(=O)Nc1ccc([C@H]2CC[C@H](c3ccc(NC(=O)[C@@H]4CCCN4C(=O)[C@@H](NC(=O)OC)C(C)(C)C)cc3)N2c2ccc(C(C)(C)C)cc2)cc1)C(C)(C)C			
22%	190 ng/mL	750 ng·h/mL	1 h	15 mL/min/kg	44%	4.1 µM (≈ 3.51 µg/mL)	49%	4.6	184 pM	3680 pM	396 pM	12 pM	3 h	2.4 L/kg	2.6 h	COC(=O)N[C@H](C(=O)N1CCC[C@H]1C(=O)Nc1ccc([C@@H]2CC[C@@H](c3ccc(NC(=O)[C@@H]4CCCN4C(=O)[C@@H](NC(=O)OC)C(C)C)cc3)N2c2ccc(F)cc2)cc1)C(C)C	15	9	

SMILES	bioavailability [1]	Cmax [2]	AUC [3]	Tmax [4]	clearance [5]	remaining at 0.5 h [6]	solubility kinetic [7]	remaining at 0.5 h [8]	logD [9]	EC50 (Hepatitis C virus [12])	EC50 (Hepatitis C virus [13])	EC50 (Hepatitis C virus [14])	EC50 (Hepatitis C virus [15])	half-life [16]	Vd [17]	half-life [18]	Ratio EC50 (Hepatitis C virus [10])	Ratio EC50 (Hepatitis C virus [11])	other results
COC(=O)N[C@H](C(=O)N1CCC[C@H]1C(=O)Nc1ccc([C@H]2CC[C@H](c3ccc(NC(=O)[C@@H]4CCCN4C(=O)[C@@H](NC(=O)OC)C(C)C)cc3)N2c2ccc(C(C)(C)C)cc2)cc1)C(C)C	3.1%	20 ng/mL	220 ng·h/mL	4.7 h	7.17 mL/min/kg		1.8 µM (≈ 1.61 µg/mL)	65%	5.2	90 pM	986 pM	138 pM	8.8 pM	8.6 h	2.2 L/kg	5.5 h	10	7	
